Source: PMC5647113 (Circulation. Arrhythmia and electrophysiology, 2017)

Legend:
hERG (KV11.1) = hERG (KV11.1) (Homo sapiens, UniProt Q12809); assay: automated patch clamp; type: cell-based
hSK3 (KCa2.3) = hSK3 (KCa2.3) (Homo sapiens, UniProt Q9UGI6); assay: automated whole-cell patch clamp; type: cell-based
Chain of hSK3 (KCa2.3) (Q9UGI6 whole entry): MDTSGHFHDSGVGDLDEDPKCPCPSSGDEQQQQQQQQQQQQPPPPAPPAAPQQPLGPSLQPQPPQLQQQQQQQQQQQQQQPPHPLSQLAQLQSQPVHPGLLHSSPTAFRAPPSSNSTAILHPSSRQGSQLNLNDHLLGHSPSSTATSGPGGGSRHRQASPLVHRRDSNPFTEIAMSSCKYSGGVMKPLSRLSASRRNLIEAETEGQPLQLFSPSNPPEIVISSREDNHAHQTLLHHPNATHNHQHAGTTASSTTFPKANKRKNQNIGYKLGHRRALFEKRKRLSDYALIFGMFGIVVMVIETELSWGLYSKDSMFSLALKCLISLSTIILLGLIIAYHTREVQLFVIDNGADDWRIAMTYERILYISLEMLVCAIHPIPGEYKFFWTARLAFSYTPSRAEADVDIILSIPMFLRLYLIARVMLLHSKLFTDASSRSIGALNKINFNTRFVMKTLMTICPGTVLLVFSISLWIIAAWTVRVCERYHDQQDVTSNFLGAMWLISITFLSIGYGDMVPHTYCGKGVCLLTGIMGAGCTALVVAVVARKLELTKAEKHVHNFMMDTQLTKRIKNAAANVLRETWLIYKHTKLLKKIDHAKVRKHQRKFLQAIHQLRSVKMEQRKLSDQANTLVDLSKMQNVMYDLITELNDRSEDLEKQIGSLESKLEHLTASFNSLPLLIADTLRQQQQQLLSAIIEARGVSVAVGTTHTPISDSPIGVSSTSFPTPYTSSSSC

Chain of hERG (KV11.1) (Q12809 whole entry): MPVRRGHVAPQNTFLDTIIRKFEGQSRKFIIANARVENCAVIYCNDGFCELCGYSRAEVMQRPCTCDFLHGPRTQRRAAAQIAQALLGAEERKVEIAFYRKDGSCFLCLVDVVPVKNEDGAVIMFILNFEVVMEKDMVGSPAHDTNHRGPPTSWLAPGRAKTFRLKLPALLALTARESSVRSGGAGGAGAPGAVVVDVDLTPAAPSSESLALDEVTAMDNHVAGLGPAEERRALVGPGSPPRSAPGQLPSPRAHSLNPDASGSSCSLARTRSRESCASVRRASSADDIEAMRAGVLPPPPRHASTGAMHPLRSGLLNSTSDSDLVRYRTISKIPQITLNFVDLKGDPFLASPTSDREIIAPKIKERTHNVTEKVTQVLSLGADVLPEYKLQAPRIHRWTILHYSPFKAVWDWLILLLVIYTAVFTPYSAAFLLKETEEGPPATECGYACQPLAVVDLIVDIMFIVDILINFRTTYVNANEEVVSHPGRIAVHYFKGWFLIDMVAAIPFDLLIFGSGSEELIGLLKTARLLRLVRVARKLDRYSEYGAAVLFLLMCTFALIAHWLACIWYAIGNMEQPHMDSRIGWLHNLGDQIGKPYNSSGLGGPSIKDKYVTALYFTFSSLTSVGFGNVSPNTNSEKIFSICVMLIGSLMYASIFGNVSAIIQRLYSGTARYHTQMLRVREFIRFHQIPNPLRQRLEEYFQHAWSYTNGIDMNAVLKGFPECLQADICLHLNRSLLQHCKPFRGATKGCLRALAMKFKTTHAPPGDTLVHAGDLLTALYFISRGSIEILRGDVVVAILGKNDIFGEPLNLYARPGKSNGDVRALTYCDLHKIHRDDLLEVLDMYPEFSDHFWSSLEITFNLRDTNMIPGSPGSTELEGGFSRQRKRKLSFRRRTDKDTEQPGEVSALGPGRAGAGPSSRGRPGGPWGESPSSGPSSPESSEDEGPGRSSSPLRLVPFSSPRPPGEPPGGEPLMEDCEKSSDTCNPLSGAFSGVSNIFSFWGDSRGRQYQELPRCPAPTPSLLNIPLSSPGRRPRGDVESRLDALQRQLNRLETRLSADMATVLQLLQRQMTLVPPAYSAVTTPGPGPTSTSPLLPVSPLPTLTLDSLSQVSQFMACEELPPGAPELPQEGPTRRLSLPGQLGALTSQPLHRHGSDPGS

IC50 (hSK3 (KCa2.3)): 1.3 ± 0.4 µM
SMILES: CC(=O)Nc1cccc2[nH]c(N[C@H](C)c3cccc(C(F)(F)F)c3)nc12 [AP14145, N-(2-{[(1R)-1-[3-(trifluoromethyl)phenyl]ethyl]amino}-1H-1,3-benzodiazol-4-yl)acetamide]
IC50 (hERG (KV11.1)): 71.8 ± 0.5 µM
